Laboratory results as given in ChEMBL document CHEMBL1157537 (J Med Chem, 2008).
Calls of active or inactive are those of the source. The calls are words filed in the database; no cut-off is given here.

Experiments:
[1] = biological target: T1, Estrogen receptor (Homo sapiens) (UniProt P03372); experiment: Agonist activity at human estrogen receptor alpha relative to 17-beta-estradiol; assay type: functional
T1 sequence (whole entry): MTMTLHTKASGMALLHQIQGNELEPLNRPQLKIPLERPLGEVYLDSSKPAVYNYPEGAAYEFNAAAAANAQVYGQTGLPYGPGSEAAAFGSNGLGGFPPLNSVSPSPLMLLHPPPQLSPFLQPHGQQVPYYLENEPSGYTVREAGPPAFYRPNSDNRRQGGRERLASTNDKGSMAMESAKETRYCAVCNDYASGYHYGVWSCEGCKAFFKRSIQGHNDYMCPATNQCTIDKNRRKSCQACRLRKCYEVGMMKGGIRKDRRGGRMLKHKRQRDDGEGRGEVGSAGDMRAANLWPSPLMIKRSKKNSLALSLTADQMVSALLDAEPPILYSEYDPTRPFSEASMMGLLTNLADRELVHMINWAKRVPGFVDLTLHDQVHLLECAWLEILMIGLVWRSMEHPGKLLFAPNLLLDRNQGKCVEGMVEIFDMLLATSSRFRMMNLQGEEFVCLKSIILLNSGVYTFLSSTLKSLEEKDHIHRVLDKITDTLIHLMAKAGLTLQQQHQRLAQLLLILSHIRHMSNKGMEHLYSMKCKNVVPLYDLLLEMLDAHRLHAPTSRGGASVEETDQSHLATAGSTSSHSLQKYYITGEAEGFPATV

[2] = biological target: T2, Glucocorticoid receptor (Homo sapiens) (UniProt P04150); experiment: Agonist activity at human glucocorticoid receptor relative to Dexamethasone; assay type: functional
T2 sequence (whole entry): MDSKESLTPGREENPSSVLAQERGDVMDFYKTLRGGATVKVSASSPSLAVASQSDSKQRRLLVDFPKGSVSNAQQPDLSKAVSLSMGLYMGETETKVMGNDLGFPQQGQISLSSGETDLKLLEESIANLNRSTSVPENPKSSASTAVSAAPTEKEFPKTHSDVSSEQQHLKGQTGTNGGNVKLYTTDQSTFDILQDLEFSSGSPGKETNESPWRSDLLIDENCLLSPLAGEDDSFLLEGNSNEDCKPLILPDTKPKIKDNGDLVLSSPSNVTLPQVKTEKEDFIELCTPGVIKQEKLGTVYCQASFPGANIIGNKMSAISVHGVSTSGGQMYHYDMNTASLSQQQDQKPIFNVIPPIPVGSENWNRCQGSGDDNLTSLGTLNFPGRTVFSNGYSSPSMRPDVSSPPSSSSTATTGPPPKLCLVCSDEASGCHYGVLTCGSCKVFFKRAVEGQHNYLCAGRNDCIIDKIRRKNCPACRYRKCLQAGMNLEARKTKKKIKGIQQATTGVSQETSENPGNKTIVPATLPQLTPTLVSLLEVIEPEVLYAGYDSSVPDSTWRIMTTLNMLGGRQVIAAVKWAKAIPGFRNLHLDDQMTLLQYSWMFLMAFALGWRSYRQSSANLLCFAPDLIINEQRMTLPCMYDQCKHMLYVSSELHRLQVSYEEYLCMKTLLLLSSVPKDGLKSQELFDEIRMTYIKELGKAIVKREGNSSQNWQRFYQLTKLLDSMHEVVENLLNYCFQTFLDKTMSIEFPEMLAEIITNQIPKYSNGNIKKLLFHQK

Oryctolagus cuniculus = experiment: Progestational activity in New Zealand white rabbit uterine epithelium at 0.10 mg/kg, po after 3 days by Clauberg-McPhail assay; assay type: functional, organism-based; design: dose 0.1 mg/kg
[3] = biological target: T3, Androgen receptor (Homo sapiens) (UniProt P10275); experiment: Agonist activity at human androgen receptor relative to dihydrotestosterone; assay type: functional
T3 sequence (whole entry): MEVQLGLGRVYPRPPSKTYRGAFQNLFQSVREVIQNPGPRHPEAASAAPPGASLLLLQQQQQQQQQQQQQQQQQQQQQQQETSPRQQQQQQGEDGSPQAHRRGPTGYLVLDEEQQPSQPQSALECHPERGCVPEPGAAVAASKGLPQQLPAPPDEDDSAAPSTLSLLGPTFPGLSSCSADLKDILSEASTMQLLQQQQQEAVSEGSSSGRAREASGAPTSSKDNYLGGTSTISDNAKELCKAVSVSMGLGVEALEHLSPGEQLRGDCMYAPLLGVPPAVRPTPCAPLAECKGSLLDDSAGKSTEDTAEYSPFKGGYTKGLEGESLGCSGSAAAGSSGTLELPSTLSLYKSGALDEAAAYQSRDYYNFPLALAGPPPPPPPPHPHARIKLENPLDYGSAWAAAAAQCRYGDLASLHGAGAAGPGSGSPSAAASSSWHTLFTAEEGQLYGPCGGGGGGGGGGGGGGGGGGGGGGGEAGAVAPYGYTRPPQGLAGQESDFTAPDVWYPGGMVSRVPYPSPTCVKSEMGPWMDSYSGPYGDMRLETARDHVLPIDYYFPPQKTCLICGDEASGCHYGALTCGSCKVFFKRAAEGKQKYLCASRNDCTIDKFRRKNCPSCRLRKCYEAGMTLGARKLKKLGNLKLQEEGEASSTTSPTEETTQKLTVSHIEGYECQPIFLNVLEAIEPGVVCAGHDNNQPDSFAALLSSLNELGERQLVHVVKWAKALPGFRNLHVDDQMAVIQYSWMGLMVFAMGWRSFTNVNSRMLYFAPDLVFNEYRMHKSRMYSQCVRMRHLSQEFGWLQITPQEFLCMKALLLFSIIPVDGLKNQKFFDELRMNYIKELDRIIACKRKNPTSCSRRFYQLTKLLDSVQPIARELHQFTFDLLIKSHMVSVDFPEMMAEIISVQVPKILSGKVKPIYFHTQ

CC1=C[C@@H]([C@@H]2Oc3c(F)cc(F)cc3-c3ccc4c(c32)C(C)=CC(C)(C)N4)CCC1 (stereo in doubt; (-)-5c)
Efficacy [1]: 5%
Efficacy [2]: 6%
Activity (Oryctolagus cuniculus): Active
Efficacy [3]: 177%
